Experimental data reported in PubChem BioAssay (NCI).
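96-well plates; 48 h exposure; 5 concentrations. Endpoints by linear interpolation between flanking doses. Not reached: highest tested concentration assigned. TGI: concentration producing complete growth inhibition.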

Columns and labels:
Assay in all cases: growth of human tumour cells (NCI), 48 h
OVCAR-4 ovarian = tested on: OVCAR-4 ovarian
SK-MEL-5 melanoma = tested on: SK-MEL-5 melanoma
LOX IMVI melanoma = tested on: LOX IMVI melanoma
HOP-62 NSCLC = tested on: HOP-62 NSCLC
RXF 393 renal = tested on: RXF 393 renal
SK-MEL-28 melanoma = tested on: SK-MEL-28 melanoma
MDA-MB-435 = tested on: MDA-MB-435
HS 578T breast = tested on: HS 578T breast
UACC-62 melanoma = tested on: UACC-62 melanoma
U251 CNS = tested on: U251 CNS
UACC-257 melanoma = tested on: UACC-257 melanoma
NCI-H23 lung = tested on: NCI-H23 lung
SF-295 CNS = tested on: SF-295 CNS
DU-145 prostate = tested on: DU-145 prostate
BT-549 breast = tested on: BT-549 breast
T-47D breast = tested on: T-47D breast
SK-OV-3 ovarian = tested on: SK-OV-3 ovarian
MOLT-4 leukemia = tested on: MOLT-4 leukemia
CCRF-CEM leukemia = tested on: CCRF-CEM leukemia
OVCAR-8 ovarian = tested on: OVCAR-8 ovarian
SF-268 CNS = tested on: SF-268 CNS
NCI-H460 lung = tested on: NCI-H460 lung
COLO 205 colon = tested on: COLO 205 colon
HT29 colon = tested on: HT29 colon
OVCAR-5 ovarian = tested on: OVCAR-5 ovarian
KM12 colon = tested on: KM12 colon
HOP-92 NSCLC = tested on: HOP-92 NSCLC
SNB-19 CNS = tested on: SNB-19 CNS
OVCAR-3 ovarian = tested on: OVCAR-3 ovarian
SW-620 colon = tested on: SW-620 colon
SNB-75 CNS = tested on: SNB-75 CNS
PC-3 prostate = tested on: PC-3 prostate
SF-539 CNS = tested on: SF-539 CNS
HCT-116 colon = tested on: HCT-116 colon
MDA-MB-231 breast = tested on: MDA-MB-231 breast
786-0 renal = tested on: 786-0 renal
ACHN renal = tested on: ACHN renal
IGROV1 ovarian = tested on: IGROV1 ovarian
HCC-2998 colon = tested on: HCC-2998 colon
HCT-15 colon = tested on: HCT-15 colon
MCF7 breast = tested on: MCF7 breast
UO-31 renal = tested on: UO-31 renal
MALME-3M melanoma = tested on: MALME-3M melanoma
MDA-N = tested on: MDA-N
SN12C renal = tested on: SN12C renal
EKVX NSCLC = tested on: EKVX NSCLC
A498 renal = tested on: A498 renal
NCI-H522 lung = tested on: NCI-H522 lung
TK-10 renal = tested on: TK-10 renal
NCI/ADR-RES ovarian = tested on: NCI/ADR-RES ovarian
NCI-H226 lung = tested on: NCI-H226 lung
K-562 leukemia = tested on: K-562 leukemia
CAKI-1 renal = tested on: CAKI-1 renal
M14 melanoma = tested on: M14 melanoma
SR leukemia = tested on: SR leukemia
HL-60(TB) leukemia = tested on: HL-60(TB) leukemia
A549 NSCLC = tested on: A549 NSCLC
SK-MEL-2 melanoma = tested on: SK-MEL-2 melanoma
RPMI-8226 leukemia = tested on: RPMI-8226 leukemia

## CN1CCN(C(=O)CCNC(=O)Cc2ccc(C(=O)c3ccccc3)cc2)CC1
OVCAR-4 ovarian
  TGI: > 100 µM
SK-MEL-5 melanoma
  TGI: > 100 µM
LOX IMVI melanoma
  TGI: > 100 µM
HOP-62 NSCLC
  TGI: > 100 µM
RXF 393 renal
  TGI: > 100 µM
SK-MEL-28 melanoma
  TGI: > 100 µM
MDA-MB-435
  TGI: 56 µM
HS 578T breast
  TGI: > 100 µM
UACC-62 melanoma
  TGI: > 100 µM
U251 CNS
  TGI: > 100 µM
UACC-257 melanoma
  TGI: > 100 µM
NCI-H23 lung
  TGI: > 100 µM
SF-295 CNS
  TGI: > 100 µM
DU-145 prostate
  TGI: > 100 µM
BT-549 breast
  TGI: > 100 µM
T-47D breast
  TGI: > 100 µM
SK-OV-3 ovarian
  TGI: > 100 µM
MOLT-4 leukemia
  TGI: > 100 µM
CCRF-CEM leukemia
  TGI: > 100 µM
OVCAR-8 ovarian
  TGI: > 100 µM
SF-268 CNS
  TGI: > 100 µM
NCI-H460 lung
  TGI: > 100 µM
COLO 205 colon
  TGI: > 100 µM
HT29 colon
  TGI: > 100 µM
OVCAR-5 ovarian
  TGI: > 100 µM
KM12 colon
  TGI: > 100 µM
HOP-92 NSCLC
  TGI: > 100 µM
SNB-19 CNS
  TGI: > 100 µM
OVCAR-3 ovarian
  TGI: > 100 µM
SW-620 colon
  TGI: > 100 µM
SNB-75 CNS
  TGI: > 100 µM
PC-3 prostate
  TGI: > 100 µM
SF-539 CNS
  TGI: > 100 µM
HCT-116 colon
  TGI: > 100 µM
MDA-MB-231 breast
  TGI: > 100 µM
786-0 renal
  TGI: > 100 µM
ACHN renal
  TGI: > 100 µM
IGROV1 ovarian
  TGI: > 100 µM
HCC-2998 colon
  TGI: > 100 µM
HCT-15 colon
  TGI: > 100 µM
MCF7 breast
  TGI: > 100 µM
UO-31 renal
  TGI: > 100 µM
MALME-3M melanoma
  TGI: > 100 µM
MDA-N
  TGI: 71.5 µM
SN12C renal
  TGI: > 100 µM
EKVX NSCLC
  TGI: > 100 µM
A498 renal
  TGI: > 100 µM
NCI-H522 lung
  TGI: > 100 µM
TK-10 renal
  TGI: > 100 µM
NCI/ADR-RES ovarian
  TGI: > 100 µM
NCI-H226 lung
  TGI: > 100 µM
K-562 leukemia
  TGI: > 100 µM
CAKI-1 renal
  TGI: > 100 µM
M14 melanoma
  TGI: > 100 µM
SR leukemia
  TGI: > 100 µM
HL-60(TB) leukemia
  TGI: > 100 µM
A549 NSCLC
  TGI: > 100 µM
SK-MEL-2 melanoma
  TGI: > 100 µM
RPMI-8226 leukemia
  TGI: > 100 µM

## N#Cc1nc2ccccc2nc1N1CCN(c2ccc([N+](=O)[O-])cc2)CC1
OVCAR-4 ovarian
  TGI: > 100 µM
SK-MEL-5 melanoma
  TGI: > 100 µM
LOX IMVI melanoma
  TGI: > 100 µM
HOP-62 NSCLC
  TGI: > 100 µM
RXF 393 renal
  TGI: > 100 µM
SK-MEL-28 melanoma
  TGI: > 100 µM
MDA-MB-435
  TGI: > 100 µM
HS 578T breast
  TGI: > 100 µM
UACC-62 melanoma
  TGI: > 100 µM
U251 CNS
  TGI: > 100 µM
UACC-257 melanoma
  TGI: > 100 µM
NCI-H23 lung
  TGI: > 100 µM
SF-295 CNS
  TGI: > 100 µM
DU-145 prostate
  TGI: > 100 µM
BT-549 breast
  TGI: > 100 µM
T-47D breast
  TGI: > 100 µM
SK-OV-3 ovarian
  TGI: > 100 µM
MOLT-4 leukemia
  TGI: 1.05 µM
CCRF-CEM leukemia
  TGI: > 100 µM
OVCAR-8 ovarian
  TGI: > 100 µM
SF-268 CNS
  TGI: > 100 µM
NCI-H460 lung
  TGI: > 100 µM
COLO 205 colon
  TGI: > 100 µM
HT29 colon
  TGI: > 100 µM
OVCAR-5 ovarian
  TGI: > 100 µM
KM12 colon
  TGI: > 100 µM
HOP-92 NSCLC
  TGI: > 100 µM
SNB-19 CNS
  TGI: > 100 µM
SW-620 colon
  TGI: > 100 µM
SNB-75 CNS
  TGI: > 100 µM
PC-3 prostate
  TGI: > 100 µM
HCT-116 colon
  TGI: > 100 µM
MDA-MB-231 breast
  TGI: > 100 µM
786-0 renal
  TGI: > 100 µM
ACHN renal
  TGI: > 100 µM
IGROV1 ovarian
  TGI: > 100 µM
HCC-2998 colon
  TGI: > 100 µM
HCT-15 colon
  TGI: > 100 µM
MCF7 breast
  TGI: > 100 µM
UO-31 renal
  TGI: > 100 µM
MALME-3M melanoma
  TGI: > 100 µM
MDA-N
  TGI: > 100 µM
SN12C renal
  TGI: > 100 µM
EKVX NSCLC
  TGI: > 100 µM
A498 renal
  TGI: > 100 µM
NCI-H522 lung
  TGI: > 100 µM
TK-10 renal
  TGI: > 100 µM
NCI/ADR-RES ovarian
  TGI: > 100 µM
NCI-H226 lung
  TGI: > 100 µM
CAKI-1 renal
  TGI: > 100 µM
M14 melanoma
  TGI: > 100 µM
SR leukemia
  TGI: > 100 µM
HL-60(TB) leukemia
  TGI: > 100 µM
A549 NSCLC
  TGI: > 100 µM
SK-MEL-2 melanoma
  TGI: > 100 µM
RPMI-8226 leukemia
  TGI: > 100 µM
